Earlier results, collected in patent EP0547334A1, “Combination of calcium antagonists with cholinesterase inhibitors for the treatment of senile demention” (priority 1991, dated 1993).

Test system: Ratten
Settings: Metrifonat 1 mg/kg alone, oral, rats; literature statement (Schmidt, de Jonge 1991)

Q: With `COP(=O)(OC)C(O)C(Cl)(Cl)Cl` (stereo not shown) [Metrifonat] as the compound, how does the Wirkung read?
A: Its Wirkung is “keine Wirkung”.
